Measured values as given in patent US20250188110A1, “SPECIFIC SMALL MOLECULE INHIBITORS THAT BLOCK KMT9 METHYLTRANSFERASE ACTIVITY AND FUNCTION” (ALBERT-LUDWIGS-UNIVERSITÄT FREIBURG, priority 2021, published 2025).
Where two headings read alike, the source gives them in different places.

What was measured:
KMT9 [1] = biological target: T1, KMT9 (Homo sapiens, UniProt Q9Y5N5); experiment: Microscale thermophoresis (MST) KMT9 binding; details: His-tag labelled KMT9 20 nM
T1 sequence (Q9Y5N5 1-214): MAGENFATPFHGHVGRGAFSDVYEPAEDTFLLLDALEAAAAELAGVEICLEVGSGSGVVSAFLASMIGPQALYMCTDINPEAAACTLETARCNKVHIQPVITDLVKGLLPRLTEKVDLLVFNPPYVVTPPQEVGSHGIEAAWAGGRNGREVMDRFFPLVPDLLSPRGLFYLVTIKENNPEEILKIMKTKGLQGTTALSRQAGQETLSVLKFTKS
T1 sequence (Q9UI30 1-120 isoform Q9UI30-2 partner): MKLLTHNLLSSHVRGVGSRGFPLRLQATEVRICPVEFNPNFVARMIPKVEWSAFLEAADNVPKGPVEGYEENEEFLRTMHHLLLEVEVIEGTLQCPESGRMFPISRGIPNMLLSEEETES
Method in brief: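 Kd from microscale thermophoresis: compound series against 20 nM His-KMT9 labelled via RED-Tris-NTA, buffer 25 mM HEPES (pH 7.5)/100 mM NaCl/1 mM DTT/0.05% Tween, 40% MST power, 100% LED. Reported as classes: A ≤10 nM, B >10–100 nM, C >100–1000 nM, D >1000 nM.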

KMT9 [2] = biological target: T1, KMT9; experiment: KMT9 thermal shift assay (SyproOrange); type: binding; details: 2 μM KMT9
Method in brief: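 ΔTm versus DMSO-only control is reported in bins (>20 K, 15–20 K, 10–15 K, ≤10 K), using Tm from Boltzmann sigmoidal fits of SyproOrange melt curves. KMT9 with compound in pH 8.5 BTP buffer containing MgCl2 and DTT was preincubated at 25° C, then ramped 1° C per 15 s up to 95° C.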

KMT9 [3] = biological target: T1, KMT9; experiment: KMT9 methyltransferase inhibition assay, MTaseGlo luminescence (from entry 155); type: biochemical; details: 100 nM KMT9, 5 μM ETF1, 1 μM SAM
Method in brief: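 KMT9 (100 nM final) pre-incubated with inhibitor for 15 min at room temperature, then reacted with 5 μM ETF1 and 1 μM SAM for 2 h at 30° C. at 2% DMSO final. MTaseGlo luminescence read after 60 min detection; IC50 reported in four potency bins.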

[4] = 500 µM compound, read-out: Thermal shift (ΔTm)
[5] = MTaseGlo procedure (entries from 155), read-out: Inhibition (IC50)
[6] = ΔTm class, 500 uM compound, read-out: Thermal shift
[7] = IC50 class, MTaseGlo procedure (entries from 155 on), read-out: Inhibition

Structure (SMILES)	Kd (KMT9 [1]; read-out: MST (Kd)) [nM]	ΔTm at 500 µM (KMT9 [2]; [4]) [°C]	IC50 (KMT9 [3]; [5]) [nM]	Kd (KMT9 [1]; Kd class, read-out: MST) [nM]	ΔTm at 500 µM (KMT9 [2]; [6]) [°C]	IC50 (KMT9 [3]; [7]) [nM]
CN(CCCNCCc1ccc(F)cc1)C[C@H]1C[C@@H](n2cc(-c3ccn(C)n3)c3c(N)nc(Cl)nc32)[C@H](O)[C@@H]1O [Compound 645, (1R,2S,3R,5R)-3-[4-Amino-2-chloro-5-(1-methylpyrazol-3-yl)pyrrolo[2,3-d]pyrimidin-7-yl]-5-{[(3-{[2-(4-fluorophenyl)ethyl]amino}propyl)(methyl)amino]methyl}cyclopentane-1,2-diol]	10 to 100	> 20	100 to 1000	–	–	–
Nc1nc(Cl)nc2c1c(-c1nc(Cc3ccccc3)cs1)cn2[C@@H]1C[C@H](CNCCCNCCc2ccc(F)cc2)[C@@H](O)[C@H]1O [Compound 646, (1R,2S,3R,5R)-3-(4-Amino-5-(4-benzylthiazol-2-yl)-2-chloro-7H-pyrrolo[2,3-d]pyrimidin-7-yl)-5-(((3-((4-fluorophenethyl)amino)propyl)amino)methyl)cyclopentane-1,2-diol]	–	–	–	10 to 100	> 20	100 to 1000
CN(CCCNCCc1ccc(F)cc1)C[C@H]1C[C@@H](n2cc(-c3nc(Cc4ccccc4)cs3)c3c(N)nc(Cl)nc32)[C@H](O)[C@@H]1O [Compound 647, (1R,2S,3R,5R)-3-(4-Amino-5-(4-benzylthiazol-2-yl)-2-chloro-7H-pyrrolo[2,3-d]pyrimidin-7-yl)-5-(((3-((4-fluorophenethyl)amino)propyl)(methyl)amino)methyl)cyclopentane-1,2-diol]	10 to 100	> 20	1000 to 10000	–	–	–
CN(CCCNCCc1ccc(F)cc1)C[C@H]1C[C@@H](n2cc(-c3nccs3)c3c(N)nc(Cl)nc32)[C@H](O)[C@@H]1O [Compound 648, (1R,2S,3R,5R)-3-[4-Amino-2-chloro-5-(1,3-thiazol-2-yl)pyrrolo[2,3-d]pyrimidin-7-yl]-5-{[(3-{[2-(4-fluorophenyl)ethyl]amino}propyl)(methyl)amino]methyl}cyclopentane-1,2-diol]	≤ 10	> 20	100 to 1000	–	–	–
Nc1ncnc2c1ccn2[C@@H]1C[C@H](c2cccc(-c3cccnc3)c2)[C@@H](O)[C@H]1O [Compound 649, (1R,2S,3R,5R)-3-(4-amino-7H-pyrrolo[2,3-d]pyrimidin-7-yl)-5-(3-(pyridin-3-yl)phenyl)cyclopentane-1,2-diol]	–	–	–	> 1000	≤ 10	> 10000
Nc1ncnc2c1ccn2[C@@H]1C[C@H](c2cccc(-c3cnsc3)c2)[C@@H](O)[C@H]1O [Compound 650, (1R,2S,3R,5R)-3-(4-amino-7H-pyrrolo[2,3-d]pyrimidin-7-yl)-5-(3-(isothiazol-4-yl)phenyl)cyclopentane-1,2-diol]	–	–	–	100 to 1000	≤ 10	> 10000
O[C@@H]1[C@H](O)[C@@H](C2=CCCN(CC(F)(F)F)C2)C[C@H]1n1cc(-c2nc(Cc3ccccc3)cs2)c2cnc(Cl)nc21 [Compound 651, (1R,2S,3R,5R)-3-[5-(4-Benzyl-1,3-thiazol-2-yl)-2-chloropyrrolo[2,3-d]pyrimidin-7-yl]-5-[1-(2,2,2-trifluoroethyl)-5,6-dihydro-2H-pyridin-3-yl]cyclopentane-1,2-diol]	–	–	–	> 1000	≤ 10	> 10000
Nc1ncnc2c1ccn2[C@@H]1C[C@H](c2cccc(-c3cn[nH]c3)c2)[C@@H](O)[C@H]1O [Compound 652, (15,2R,3R,5R)-3-(3-(1H-pyrazol-4-yl)phenyl)-5-(4-amino-7H-pyrrolo[2,3-d]pyrimidin-7-yl)cyclopentane-1,2-diol]	–	–	–	> 1000	≤ 10	> 10000
Nc1ncnc2c1ccn2[C@@H]1C[C@H](c2cccc(-c3cncs3)c2)[C@@H](O)[C@H]1O [Compound 653, (1R,2S,3R,5R)-3-(4-amino-7H-pyrrolo[2,3-d]pyrimidin-7-yl)-5-(3-(thiazol-5-yl)phenyl)cyclopentane-1,2-diol]	–	–	–	> 1000	≤ 10	> 10000
Nc1ncnc2c1ccn2[C@@H]1C[C@H](c2cccc(-c3cscn3)c2)[C@@H](O)[C@H]1O [Compound 654, (1R,2S,3R,5R)-3-{4-aminopyrrolo[2,3-d]pyrimidin-7-yl}-5-[3-(1,3-thiazol-4-yl)phenyl]cyclopentane-1,2-diol]	–	–	–	> 1000	≤ 10	> 10000
Nc1nc(Cl)nc2c1ccn2[C@@H]1C[C@H](c2ccc(O)cc2)[C@@H](O)[C@H]1O [Compound 655]	≤ 10	10 to 15	100 to 1000	–	–	–
CNc1nc(Cl)nc2c1ccn2[C@@H]1C[C@H](c2ccc(O)cc2)[C@@H](O)[C@H]1O [Compound 656, (1R,2S,3R,5R)-3-(2-chloro-4-(methylamino)-7H-pyrrolo[2,3-d]pyrimidin-7-yl)-5-(4-hydroxyphenyl)cyclopentane-1,2-diol]	10 to 100	≤ 10	1000 to 10000	–	–	–
CNc1ncnc2c1ccn2[C@@H]1C[C@H](c2cn[nH]c2)[C@@H](O)[C@H]1O [Compound 657, (1R,2S,3R,5R)-3-[4-(Methylamino)pyrrolo[2,3-d]pyrimidin-7-yl]-5-(1H-pyrazol-4-yl)cyclopentane-1,2-diol]	> 1000	≤ 10	> 10000	–	–	–
Nc1ncnc2c1ccn2[C@@H]1C[C@H](c2cn[nH]c2)[C@@H](O)[C@H]1O [Compound 658, (1R,2S,3R,5R)-3-{4-Aminopyrrolo[2,3-d]pyrimidin-7-yl}-5-(1H-pyrazol-4-yl)cyclopentane-1,2-diol]	> 1000	≤ 10	> 10000	–	–	–

The remaining lines, values ahead:

Kd (KMT9 [1]; read-out: MST (Kd)) [nM]	ΔTm at 500 µM (KMT9 [2]; [4]) [°C]	IC50 (KMT9 [3]; [5]) [nM]	Kd (KMT9 [1]; Kd class, read-out: MST) [nM]	ΔTm at 500 µM (KMT9 [2]; [6]) [°C]	IC50 (KMT9 [3]; [7]) [nM]	Structure (SMILES)
100 to 1000	≤ 10	1000 to 10000	–	–	–	NCc1cccc([C@H]2C[C@@H](n3ccc4c(N)ncnc43)[C@H](O)[C@@H]2O)c1 [Compound 659, (1R,2S,3R,5R)-3-(4-Amino-7H-pyrrolo[2,3-d]pyrimidin-7-yl)-5-(3-(aminomethyl)phenyl)cyclopentane-1,2-diol]
≤ 10	15 to 20	< 100	–	–	–	NCc1cccc([C@H]2C[C@@H](n3ccc4c(N)nc(Cl)nc43)[C@H](O)[C@@H]2O)c1 [Compound 660, (1R,2S,3R,5R)-3-{4-Amino-2-chloropyrrolo[2,3-d]pyrimidin-7-yl}-5-[3-(aminomethyl)phenyl]cyclopentane-1,2-diol]
100 to 1000	≤ 10	1000 to 10000	–	–	–	Cn1cc([C@H]2C[C@@H](n3ccc4c(N)nc(Cl)nc43)[C@H](O)[C@@H]2O)cn1 [Compound 661, (1R,2S,3R,5R)-3-(4-Amino-2-chloro-7H-pyrrolo[2,3-d]pyrimidin-7-yl)-5-(1-methyl-1H-pyrazol-4-yl)cyclopentane-1,2-diol]
100 to 1000	≤ 10	1000 to 10000	–	–	–	Nc1nc(Cl)nc2c1ccn2[C@@H]1C[C@H](c2cc[nH]c(=O)c2)[C@@H](O)[C@H]1O [Compound 662, 4-[(1R,2R,3S,4R)-4-{4-Amino-2-chloropyrrolo[2,3-d]pyrimidin-7-yl}-2,3-dihydroxycyclopentyl]-1H-pyridin-2-one]
10 to 100	≤ 10	100 to 1000	–	–	–	COc1cc([C@H]2C[C@@H](n3ccc4c(N)nc(Cl)nc43)[C@H](O)[C@@H]2O)ccn1 [Compound 663, (1R,2S,3R,5R)-3-{4-Amino-2-chloropyrrolo[2,3-d]pyrimidin-7-yl}-5-(2-methoxypyridin-4-yl)cyclopentane-1,2-diol]
10 to 100	10 to 15	100 to 1000	–	–	–	COc1cc(OC)cc([C@H]2C[C@@H](n3ccc4c(N)nc(Cl)nc43)[C@H](O)[C@@H]2O)c1 [Compound 664, (1R,2S,3R,5R)-3-{4-Amino-2-chloropyrrolo[2,3-d]pyrimidin-7-yl]-5-(3,5-dimethoxyphenyl)cyclopentane-1,2-diol]
≤ 10	15 to 20	100 to 1000	–	–	–	COc1cc(CN)cc([C@H]2C[C@@H](n3ccc4c(N)nc(Cl)nc43)[C@H](O)[C@@H]2O)c1 [Compound 665, (1R,2S,3R,5R)-3-(4-amino-2-chloro-7H-pyrrolo[2,3-d]pyrimidin-7-yl)-5-(3-(aminomethyl)-5-methoxyphenyl)cyclopentane-1,2-diol]
10 to 100	10 to 15	100 to 1000	–	–	–	COc1cc(Br)cc([C@H]2C[C@@H](n3ccc4c(N)nc(Cl)nc43)[C@H](O)[C@@H]2O)c1 [Compound 666, (1R,2S,3R,5R)-3-(4-amino-2-chloro-7H-pyrrolo[2,3-d]pyrimidin-7-yl)-5-(3-bromo-5-methoxyphenyl)cyclopentane-1,2-diol]
